{"source": "patent US6762036B2", "about": "“Cellular physiology workstations for automated data acquisition and perfusion control” (Trustees of Boston University, priority 1995, dated 2004)", "assay_type_in_all_cases": "cell-based", "key": {"[1]": {"test_system": "kainate responses in oocytes injected with rat brain poly A+ mRNA", "assay": "Effect of pregnenolone sulfate on kainate dose-response curve in oocytes injected with rat brain poly A+ mRNA", "settings": "with and without pregnenolone sulfate, Vh about −100 mV, FIG. 9", "procedure": "Poly A^+ mRNA are extracted from brain tissue and neuronal cell culture using a magnetic separation protocol based on the Dynabeads Oligo (dT)25 kit (Dynal, Olso, Norway). Briefly, the protocol utilized magnetic beads that have an attached poly-T moiety which can bind poly A^+ mRNA for separation. Tissue is homogenized, cells are disrupted, and the lysate is added to an aliquot of Dynabeads. Magnetic separation efficiently yields mRNA that is suitable for direct injection into oocytes. Batches of about 20 to about 30 select oocytes are injected with about 50 to about 100 ng of neuronal poly A^+ mRNA. Alternatively, oocytes may be injected with about 30 μl to about 80 μl of RNA prepared from in vitro transcription of cDNA clones. In either case, injection may be performed using a Drummond electronic microinjector. Oocytes are then maintained at about 18° C. to about 19° C. for about 2 to about 4 days to allow protein expression prior to electrophysiological recordings. After incubation, electrophysiological analysis of expressed receptors and ion channels may be performed using a system according to the present invention.\nAbout 3 days to about 5 days after RNA injection, electrophysiological recordings were carried out using an Axoclamp-2A voltage clamp amplifier (Axon Instruments, Inc.). […]"}, "[2]": {"biological_target": "T1, recombinant GluR6 kainate receptors (Homo sapiens, UniProt Q13002)", "T1 construct": "expressed in transfected cells; host or cells: Xenopus laevis oocytes injected with in vitro transcribed GluR6 cRNA", "T1 sequence (Q13002 32-908)": "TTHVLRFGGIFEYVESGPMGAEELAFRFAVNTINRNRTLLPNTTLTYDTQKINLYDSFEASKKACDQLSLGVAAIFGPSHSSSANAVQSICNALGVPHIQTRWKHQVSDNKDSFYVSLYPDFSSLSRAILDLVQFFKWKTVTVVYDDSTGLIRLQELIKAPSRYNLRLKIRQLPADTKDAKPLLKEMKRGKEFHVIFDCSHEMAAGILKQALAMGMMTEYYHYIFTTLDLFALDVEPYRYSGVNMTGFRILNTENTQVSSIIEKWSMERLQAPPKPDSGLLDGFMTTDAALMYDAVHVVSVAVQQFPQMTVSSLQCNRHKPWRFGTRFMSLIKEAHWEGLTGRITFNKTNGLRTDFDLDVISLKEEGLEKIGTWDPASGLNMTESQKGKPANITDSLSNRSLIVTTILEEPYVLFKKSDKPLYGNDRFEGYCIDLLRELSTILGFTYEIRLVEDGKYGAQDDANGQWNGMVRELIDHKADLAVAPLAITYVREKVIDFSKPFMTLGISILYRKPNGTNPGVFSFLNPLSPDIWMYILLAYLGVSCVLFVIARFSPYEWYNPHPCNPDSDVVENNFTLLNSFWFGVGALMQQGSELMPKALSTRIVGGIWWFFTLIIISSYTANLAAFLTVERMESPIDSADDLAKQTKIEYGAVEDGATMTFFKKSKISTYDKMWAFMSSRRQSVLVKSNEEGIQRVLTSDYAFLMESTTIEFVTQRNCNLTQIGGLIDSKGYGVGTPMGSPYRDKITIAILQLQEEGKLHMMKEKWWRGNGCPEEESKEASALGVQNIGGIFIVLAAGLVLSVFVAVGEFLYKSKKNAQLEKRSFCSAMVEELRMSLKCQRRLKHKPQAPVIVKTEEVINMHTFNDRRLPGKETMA", "assay": "Effects of steroids on recombinant GluR6 kainate receptors in oocytes", "settings": "recombinant GluR6, Vh about −100 mV, FIG. 11", "procedure": "All measurements were performed under Vh of about −100 mV.\nAbout 3 days to about 5 days after RNA injection, electrophysiological recordings were carried out using an Axoclamp-2A voltage clamp amplifier (Axon Instruments, Inc.). Experiments were performed in two-electrode voltage clamp mode using two intracellular microelectrodes of about 1 to about 3 mega-ohm resistance filled with a solution of about 3M KCl.\nOocytes were usually clamped at a holding potential of about −60 mV and stepped to about −100 mV during agent application."}, "[3]": {"test_system": "metabotropic glutamate receptors", "assay": "Inhibition of kainate responses by stimulation of metabotropic glutamate receptors in oocytes injected with rat brain poly A+ mRNA", "settings": "about 500 μM tACPD, about 100 μM kainate, repetitive applications, FIG. 14", "protocol": "Poly A^+ mRNA are extracted from brain tissue and neuronal cell culture using a magnetic separation protocol based on the Dynabeads Oligo (dT)25 kit (Dynal, Olso, Norway). Briefly, the protocol utilized magnetic beads that have an attached poly-T moiety which can bind poly A^+ mRNA for separation. Tissue is homogenized, cells are disrupted, and the lysate is added to an aliquot of Dynabeads. Magnetic separation efficiently yields mRNA that is suitable for direct injection into oocytes. Batches of about 20 to about 30 select oocytes are injected with about 50 to about 100 ng of neuronal poly A^+ mRNA. Alternatively, oocytes may be injected with about […] of RNA prepared from in vitro transcription of cDNA clones. In either case, injection may be performed using a Drummond electronic microinjector. Oocytes are then maintained at about 18° C. to about 19° C. for about 2 to about 4 days to allow protein expression prior to electrophysiological recordings. After incubation, electrophysiological analysis of expressed receptors and ion channels may be performed using a system according to the present invention."}}}
{"compound": "pregnenolone sulfate", "values": [{"measurement": "Effect on Emax of kainate dose-response curve", "setting": "[1]", "value": "decrease in Emax"}, {"measurement": "Effect on maximal response to kainate", "setting": "[2]", "value": "decrease the maximal response to kainate"}]}
{"compound": "N[C@]1(C(=O)O)CC[C@H](C(=O)O)C1", "note": "[tACPD]", "values": [{"measurement": "Effect on responses to kainate", "setting": "[3]", "value": "can inhibit responses to kainate"}]}
